Experimental findings from US20230174523A1, “BENZENESULFONAMIDE DERIVATIVES AS TRAP1 MODULATORS AND USES THEREOF” (Amathus Therapeutics, Inc., priority 2020, published 2023) are described below.

The target of the test is T1, TRAP1 enzyme (Homo sapiens, UniProt Q12931).
T1 sequence (Q12931 60-704): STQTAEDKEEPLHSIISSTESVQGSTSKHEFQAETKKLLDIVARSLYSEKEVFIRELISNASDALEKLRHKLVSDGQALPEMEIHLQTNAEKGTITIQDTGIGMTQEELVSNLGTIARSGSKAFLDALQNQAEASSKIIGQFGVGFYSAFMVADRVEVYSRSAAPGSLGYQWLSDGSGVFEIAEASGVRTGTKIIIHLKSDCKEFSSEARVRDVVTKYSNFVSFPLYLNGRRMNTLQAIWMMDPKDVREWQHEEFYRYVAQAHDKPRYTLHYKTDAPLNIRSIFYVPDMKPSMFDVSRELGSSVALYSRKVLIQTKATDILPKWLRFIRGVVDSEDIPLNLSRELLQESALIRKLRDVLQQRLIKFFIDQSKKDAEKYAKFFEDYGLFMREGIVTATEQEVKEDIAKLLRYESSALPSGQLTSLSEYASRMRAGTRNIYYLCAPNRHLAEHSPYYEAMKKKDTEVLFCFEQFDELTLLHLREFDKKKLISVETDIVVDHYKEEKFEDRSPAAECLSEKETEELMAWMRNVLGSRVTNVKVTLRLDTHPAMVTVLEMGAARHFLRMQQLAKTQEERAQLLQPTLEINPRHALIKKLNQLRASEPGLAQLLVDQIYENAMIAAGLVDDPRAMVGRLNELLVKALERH
In words: ADP Glo assay of TRAP1 ATPase activity. Type of test: biochemical. The settings on record: for EC50: TRAP1 ATPase activation, 150 nM Trap1, 20 μM ATP, geometric mean, read-out: ADP GLO DRC: GeoMean EC50; for Emax: read-out: ADP GLO DRC: Mean Emax. The gist of the method: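 150 nM TRAP1 preincubated with compound (0.79–100 μM) 30 min at 37° C in Pipes pH 7.5 buffer (0.05 mM MgCl2, 40 mM KCl), then 20 μM ATP added for 60 min at 37° C. ADP quantified by ADP-Glo luminescence against ATP/ADP standard curve. Emax and EC50 from sigmoidal fit.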
Background: ADP-Glo first removes unused ATP, then detects ADP through luciferase.

Structures are written as SMILES.

As a reminder, the EC50 is the concentration giving half of the maximal effect. One may read the Emax as the size of the effect at its maximum, as opposed to the concentration needed. For `COc1ccc(NC(=O)c2cccc3nccnc23)cc1S(=O)(=O)Nc1c(C)cccc1C` [Compound 1251], the concentration for a half-maximal effect (EC50) was 10 to 20 µM and the Emax lay within 160 to 199%.

With `COc1ccc(NC(=O)c2cc3c(C)nn(C)c3s2)cc1S(=O)(=O)Nc1c(C)cccc1C` [Compound 1252], the EC50 is below 10 µM and the maximum response (Emax) lay within 200 to 300%.

Consider `CCS(=O)(=O)c1ccc(OC)c(C(=O)Nc2ccc(OC)c(S(=O)(=O)Nc3c(C)cccc3C)c2)c1` [Compound 1254], for which the EC50 lay in the range of 20 to 100 µM and the maximal response (Emax) was in the range of 160 to 199%.

Turning to `Cn1cnc2cc(C(=O)Nc3ccc(F)c(S(=O)(=O)Nc4ccc(Cl)cc4)c3)ccc2c1=O` [Compound 1256], the EC50 lay in the range of 20 to 100 µM and the Emax fell in the range of 123 to 159%.

On to `COc1ccc(NC(=O)c2cc(-c3ccccc3)[nH]n2)cc1S(=O)(=O)Nc1c(C)cccc1C` [Compound 1258], for which the EC50 was below 10 µM and the Emax lay in the range of 200 to 300%.

Turning to `COc1ccc(NC(=O)c2cccc(-n3cnnn3)c2)cc1S(=O)(=O)Nc1c(C)cccc1C` [Compound 1259], the EC50 lay in the range of 20 to 100 µM and the maximum response (Emax) is 123 to 159%.

Consider `Cn1c(=O)n(C)c2cc(C(=O)Nc3ccc(F)c(S(=O)(=O)Nc4ccc(Cl)cc4)c3)ccc21` [Compound 1261], for which the EC50 fell in the range of 20 to 100 µM and the Emax lay within 123 to 159%.

As to `COc1ccc(NC(=O)c2cn(Cc3ccccc3)nn2)cc1S(=O)(=O)Nc1c(C)cccc1C` [Compound 1265], the EC50 was below 10 µM and the Emax was 200 to 300%.

As to `COc1ccc(NC(=O)c2ccncc2-c2ccccc2)cc1S(=O)(=O)Nc1c(C)cccc1C` [Compound 1267], the EC50 fell in the range of 20 to 100 µM and the Emax was in the range of 123 to 159%.

Turning to `Cc1nc2cccc(C(=O)Nc3ccc(F)c(S(=O)(=O)Nc4ccc(Cl)cc4)c3)c2s1` [Compound 1268], the EC50 is 20 to 100 µM and the Emax is 123 to 159%.

Regarding `COc1ccc(NC(=O)c2ccc3sc(C)nc3c2)cc1S(=O)(=O)Nc1c(C)cccc1C` [Compound 1269], the EC50 fell in the range of 10 to 20 µM and the Emax was 160 to 199%.

On to `COc1ccc(NC(=O)c2ncn(-c3ccccc3)n2)cc1S(=O)(=O)Nc1c(C)cccc1C` [Compound 1270], for which the EC50 was in the range of 10 to 20 µM and the Emax lay within 200 to 300%.

Consider `COc1ccc(NC(=O)c2cccc(-c3ccccn3)c2)cc1S(=O)(=O)Nc1c(C)cccc1C` [Compound 1271], for which the concentration for a half-maximal effect (EC50) is below 10 µM and the Emax fell in the range of 160 to 199%.

Consider `COc1ccc(NC(=O)c2ccc3ocnc3c2)cc1S(=O)(=O)Nc1c(C)cccc1C` [Compound 1272], for which the EC50 is 20 to 100 µM and the Emax was in the range of 123 to 159%.

For the compound `COc1ccc(NC(=O)c2cc(Cl)ncc2C(F)(F)F)cc1S(=O)(=O)Nc1c(C)cccc1C` [Compound 1274], the EC50 lay in the range of 20 to 100 µM and the maximal effect (Emax) was in the range of 123 to 159%.

Regarding `COc1ccc(NC(=O)c2ncccc2C(=O)c2ccccc2)cc1S(=O)(=O)Nc1c(C)cccc1C` [Compound 1275], the concentration for a half-maximal effect (EC50) fell in the range of 20 to 100 µM and the Emax fell in the range of 123 to 159%.

In the case of `COc1ccc(NC(=O)c2c(-c3ccccc3)noc2C)cc1S(=O)(=O)Nc1c(C)cccc1C` [Compound 1279], the concentration giving a half-maximal response (EC50) is below 10 µM and the Emax fell in the range of 200 to 300%.

Take `CCn1nc(C(C)C)cc1C(=O)Nc1ccc(F)c(S(=O)(=O)Nc2ccc(Cl)cc2)c1` [Compound 1282]: the EC50 lay in the range of 20 to 100 µM and the Emax was 123 to 159%.

Take `CCN1CCN(c2ccc(C(=O)Nc3ccc(OC)c(S(=O)(=O)Nc4c(C)cccc4C)c3)cc2)CC1` [Compound 1283]: the EC50 fell in the range of 20 to 100 µM and the Emax was in the range of 123 to 159%.

As for `COc1ccc(NC(=O)c2ccnc(-c3ccccc3)c2)cc1S(=O)(=O)Nc1c(C)cccc1C` [Compound 1285], the EC50 was below 10 µM and the Emax fell in the range of 200 to 300%.

In the case of `CCc1cc(C(=O)Nc2ccc(F)c(S(=O)(=O)Nc3ccc(Cl)cc3)c2)cc(C)n1` [Compound 1286], the EC50 was 20 to 100 µM and the maximal response (Emax) lay within 123 to 159%.

Turning to `COc1ccc(NC(=O)c2cc3cnccc3s2)cc1S(=O)(=O)Nc1c(C)cccc1C` [Compound 1287], the EC50 lay in the range of 20 to 100 µM and the Emax was 123 to 159%.

`COc1ccc(NC(=O)c2c[nH]c3cnccc23)cc1S(=O)(=O)Nc1c(C)cccc1C` [Compound 1288]: the concentration giving a half-maximal response (EC50) is 20 to 100 µM and the Emax fell in the range of 160 to 199%.

With `COc1ccc(NC(=O)c2cccc(-c3csc(C)n3)c2)cc1S(=O)(=O)Nc1c(C)cccc1C` [Compound 1290], the EC50 was below 10 µM and the Emax lay in the range of 160 to 199%.

For the compound `COc1ccc(NC(=O)c2cnn(-c3ccccc3)c2)cc1S(=O)(=O)Nc1c(C)cccc1C` [Compound 1292], the EC50 was 10 to 20 µM and the Emax lay within 200 to 300%.

Turning to `COc1ccc(NC(=O)c2coc(-c3ccccc3)n2)cc1S(=O)(=O)Nc1c(C)cccc1C` [Compound 1301], the EC50 was below 10 µM and the Emax was in the range of 160 to 199%.

With `COc1ccc(NC(=O)c2c[nH]c(-c3c(F)cccc3F)n2)cc1S(=O)(=O)Nc1ccc(Br)cc1` [Compound 1328], the EC50 is below 10 µM and the Emax was 160 to 199%.

Regarding `COc1ccc(NC(=O)c2cnc3ccccc3c2)cc1S(=O)(=O)Nc1c(C)cccc1C` [Compound 1330], the EC50 is below 10 µM and the Emax lay within 200 to 300%.

As to `CCc1ccc(NC(=O)c2cnn(-c3ccc(Cl)cc3)c2C)cc1S(=O)(=O)Nc1ccc(Cl)cc1` [Compound 1335], the EC50 lay in the range of 20 to 100 µM and the Emax lay in the range of 123 to 159%.

For the compound `COc1ccc(NC(=O)c2ncc(-c3ccccc3)o2)cc1S(=O)(=O)Nc1c(C#N)cccc1C(F)(F)F` [Compound 1343, N-(3-(N-(2-cyano-6-(trifluoromethyl)phenyl)sulfamoyl)-4-methoxyphenyl)-5-phenyloxazole-2-carboxamide], the EC50 was in the range of 20 to 100 µM and the Emax lay in the range of 200 to 300%.

Regarding `COc1ccc(NC(=O)c2cn(C)c3ncccc23)cc1S(=O)(=O)Nc1ccc(Cl)cc1` [Compound 1345], the EC50 is below 10 µM and the Emax fell in the range of 160 to 199%.

Regarding `CCc1ccc(NC(=O)c2cccc3ncn(C)c23)cc1S(=O)(=O)Nc1c(C)cccc1C` [Compound 1353], the EC50 fell in the range of 10 to 20 µM and the Emax was 160 to 199%.

For the compound `COc1ccc(NC(=O)c2cc3ccccc3[n+](C)c2)cc1S(=O)(=O)Nc1c(C)cccc1C` [Compound 1356, 3-((3-(N-(2,6-dimethylphenyl)sulfamoyl)-4-methoxyphenyl)carbamoyl)-1-methylquinolin-1-ium], the EC50 lay within 20 to 100 µM and the maximal response (Emax) lay within 160 to 199%.

Take `COc1ccc(NC(=O)c2ncc(-c3ccccc3)o2)cc1S(=O)(=O)Nc1c(C)cccc1C#N` [Compound 1357]: the EC50 lay within 10 to 20 µM and the Emax was 160 to 199%.

`COc1ccc(NC(=O)c2ccc3cn(C)nc3c2)cc1S(=O)(=O)Nc1c(C)cccc1C` [Compound 1362]: the EC50 lay within 10 to 20 µM and the Emax was 200 to 300%.

For `COc1ccc(NC(=O)c2ccc3cnn(C)c3c2)cc1S(=O)(=O)Nc1c(C)cccc1C` [Compound 1370], the EC50 lay in the range of 20 to 100 µM and the maximal response (Emax) was above 300%.

Turning to `COc1ccc(NC(=O)c2cc3c(C)nn(C)c3s2)cc1S(=O)(=O)Nc1c(Cl)cccc1Cl` [Compound 1375], the EC50 was in the range of 10 to 20 µM and the Emax lay in the range of 160 to 199%.
